Experiments:
[1] = target: T1, recombinant human biotinylated integrin αvβ8 (Homo sapiens, UniProt P06756+P26012); test: Solid phase receptor assay for αvβ8 function; conditions: purified integrin binding to LAP-coated plate
T1 construct: biotin (biotinylated heterodimer); purchased R&D Systems
Description: Solid Phase Receptor Assay for αvβ8 Function.
Purified human LAP protein (R&D Systems, Inc) diluted to 0.5 μg/ml in TBS buffer (25 mM Tris 7.4, 137 mM NaCl, 2.7 mM KCl, 1 mM CaCl2, 1 mM MgCl2, 1 mM MnCl2) was added to wells (100 μl/well) of a 96-well half-well transparent microtiter plate (Costar 3690), and incubated overnight at 4° C. Wells were washed 3 times with 150 μl TBS, and 200 μl of blocking buffer (TBS with 1% bovine serum albumin) were added. The plate was incubated for 1 hr at 37° C., and then washed 3× with TBS/0.1% bovine serum albumin. Purified recombinant human biotinylated integrin αvβ8 (R&D Systems) was diluted to 0.1 μg/ml in TBS/0.1% bovine serum albumin. Compounds were diluted into the integrin solution and then 50 μl was added to empty wells of the washed LAP-coated plate, according to a standard template, with each sample repeated in triplicate. After incubation for one hour at room temperature, the plate was washed 3× with 150 μl of TBS/0.1% BSA. 50 μl of streptavidin-conjugated horseradish peroxidase (R&D Systems) was added to the wells, and the plate incubated for 20 min at room temperature. […] Plates were read by colorimetric detection at 650 nm wavelength using a Tecan Safire II plate reader. Concentration-response curves were constructed by non-linear regression (best fit) analysis, and IC50 values were calculated for each compound.

[2] = target: T2, αvβ3 (Homo sapiens, UniProt P05106+P06756); test: 293/b3 cell adhesion assay for αvβ3 function; format: cell-based; conditions: 293/b3 cells, adhesion to human vitronectin
T2 construct: expressed in transfected cells; host or cells: HEK 293 (293/b3)
Description: 293/b3 Cell Adhesion Assay for αvβ3 Function.
Purified human vitronectin (Calbiochem/EMD Biosciences) diluted to 0.25 μg/ml in TS buffer (25 mM Tris 7.4, 150 mM NaCl) was added to wells (100 μl/well) of a 96-well microtiter plate (Immulon 2HB 96-well; VWR Scientific) and incubated overnight at 4° C. The solution in each well was then replaced with 200 μl of blocking buffer (TS with 1% bovine serum albumin), and the plate incubated for 1 hr at 37° C. Compounds were diluted in test tubes to 2× the peak testing concentration in cell adhesion buffer consisting of Hanks Buffered Salts Solution (HBSS, cation-free, Sigma), 0.1% bovine serum albumin, 25 mM HEPES, and 200 μM MnCl2. […] The cells were washed with the cell adhesion buffer, counted using a hemocytometer, centrifuged and resuspended in cell adhesion buffer at 3×10^6 cells/ml. […] Remaining attached cells were detected by addition of 100 μl/well p-nitrophenylphosphate (Sigma) solution (15 mg tablet dissolved in 25 ml 50 mM NaAcetate, pH5; 0.5% Triton-X-100), incubation for 30 min at 37° C., and then addition of 50 μl/well 1N NaOH to stop the enzyme reaction. Plates were read by colorimetric detection at 405 nm wavelength using a Tecan Safire II plate reader. Concentration-response curves were constructed by non-linear regression (best fit) analysis, and IC50 values were calculated for each compound. […]

[3] = target: T3, recombinant human integrin αvβ1 (Homo sapiens, UniProt P05556+P06756); test: Solid phase receptor assay for αvβ1 function; conditions: purified integrin binding to fibronectin-coated plate
T3 construct: purchased R&D Systems 6579-AV
T3 sequence (P06756 31-889 limits assumed): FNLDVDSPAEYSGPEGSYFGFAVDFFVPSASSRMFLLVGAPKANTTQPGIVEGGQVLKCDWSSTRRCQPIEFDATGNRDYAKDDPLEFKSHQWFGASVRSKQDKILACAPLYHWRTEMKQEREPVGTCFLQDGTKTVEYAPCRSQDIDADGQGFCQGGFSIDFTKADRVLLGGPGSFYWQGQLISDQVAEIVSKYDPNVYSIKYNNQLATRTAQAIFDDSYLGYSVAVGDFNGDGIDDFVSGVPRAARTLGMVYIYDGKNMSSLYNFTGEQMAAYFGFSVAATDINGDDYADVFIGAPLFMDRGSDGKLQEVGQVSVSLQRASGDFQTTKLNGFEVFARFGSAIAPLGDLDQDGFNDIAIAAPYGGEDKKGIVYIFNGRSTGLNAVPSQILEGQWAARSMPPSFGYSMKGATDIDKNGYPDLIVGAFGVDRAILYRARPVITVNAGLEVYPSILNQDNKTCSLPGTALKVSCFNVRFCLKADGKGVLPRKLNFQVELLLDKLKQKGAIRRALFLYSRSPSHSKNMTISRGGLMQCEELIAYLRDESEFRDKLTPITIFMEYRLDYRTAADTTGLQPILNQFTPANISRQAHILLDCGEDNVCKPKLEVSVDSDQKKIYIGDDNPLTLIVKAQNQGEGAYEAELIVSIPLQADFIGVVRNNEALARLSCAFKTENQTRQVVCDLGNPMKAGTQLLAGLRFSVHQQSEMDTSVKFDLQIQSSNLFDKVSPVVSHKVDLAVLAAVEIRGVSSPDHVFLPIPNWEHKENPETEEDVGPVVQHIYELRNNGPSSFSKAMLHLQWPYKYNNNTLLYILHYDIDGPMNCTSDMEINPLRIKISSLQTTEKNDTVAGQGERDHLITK
T3 sequence (P06756 891-992 partner limits assumed): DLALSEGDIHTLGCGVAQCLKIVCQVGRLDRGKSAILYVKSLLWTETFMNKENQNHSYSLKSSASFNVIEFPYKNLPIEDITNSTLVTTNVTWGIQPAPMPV
T3 sequence (P05556 21-728 limits assumed): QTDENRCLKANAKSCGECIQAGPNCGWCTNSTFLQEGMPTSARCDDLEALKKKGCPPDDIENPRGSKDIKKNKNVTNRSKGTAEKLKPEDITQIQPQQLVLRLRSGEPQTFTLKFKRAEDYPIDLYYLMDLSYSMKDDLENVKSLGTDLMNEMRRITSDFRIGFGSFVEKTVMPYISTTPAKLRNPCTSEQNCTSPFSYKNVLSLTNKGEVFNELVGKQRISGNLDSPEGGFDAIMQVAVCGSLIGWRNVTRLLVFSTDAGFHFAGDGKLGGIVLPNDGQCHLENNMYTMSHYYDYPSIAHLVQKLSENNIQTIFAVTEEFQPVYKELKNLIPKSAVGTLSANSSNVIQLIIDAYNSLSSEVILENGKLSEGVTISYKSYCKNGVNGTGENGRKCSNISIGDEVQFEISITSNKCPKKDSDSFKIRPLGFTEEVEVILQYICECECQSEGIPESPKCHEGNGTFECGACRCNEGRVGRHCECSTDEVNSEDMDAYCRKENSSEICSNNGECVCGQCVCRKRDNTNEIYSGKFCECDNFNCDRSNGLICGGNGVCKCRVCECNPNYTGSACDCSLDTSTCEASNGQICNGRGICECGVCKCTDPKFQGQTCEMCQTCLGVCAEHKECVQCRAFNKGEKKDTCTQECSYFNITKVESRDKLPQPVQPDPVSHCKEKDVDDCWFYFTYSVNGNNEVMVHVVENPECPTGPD
Description: Purified human fibronectin (R&D Systems, Inc) diluted to 5 μg/ml in TBS buffer (25 mM Tris 7.4, 137 mM NaCl, 2.7 mM KCl, 1 mM CaCl2, 1 mM MgCl2, 1 mM MnCl2) was added to wells (50 μl/well) of a 96-well half-well transparent microtiter plate (Costar 3690), and incubated overnight at 4° C. Wells were washed 3 times with 150 μl TBS, and 150 μl of blocking buffer (TBS with 1% bovine serum albumin) were added. The plate was incubated for 1 hr at 37° C., and then washed 3× with TBS buffer. Purified recombinant human integrin αvβ1 (R&D Systems 6579-AV) was diluted to 2.0 μg/ml in TBS/0.1% bovine serum albumin. Compounds were diluted into the integrin solution and then 50 μl was added to empty wells of the washed fibronectin-coated plate, according to a standard template, with each sample repeated in triplicate. After incubation for one hour at room temperature, the plate was washed 3× with 150 μl of TBS buffer. To each well, 50 μl of 1 μg/ml biotinylated anti-alpha v antibody (R&D Systems) in TBS/0.1% BSA was added, and the plate was covered and incubated for 1 hr at room temperature. After washing the plate 3× with 150 μl of TBS buffer, 50 μl of streptavidin-conjugated horseradish peroxidase (R&D Systems) was added to the wells, and the plate incubated for 20 min at room temperature. […] Plates were read by colorimetric detection at 650 nm wavelength using a Tecan Safire II plate reader.

T2 sequence (P06756 31-889 limits assumed): as the sequence (P06756 31-889 limits assumed) above
T2 sequence (P06756 891-1048 partner limits assumed): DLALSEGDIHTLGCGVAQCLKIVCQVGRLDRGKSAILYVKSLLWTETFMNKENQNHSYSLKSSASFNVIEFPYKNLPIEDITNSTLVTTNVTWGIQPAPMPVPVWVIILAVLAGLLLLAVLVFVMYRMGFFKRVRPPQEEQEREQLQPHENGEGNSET
T2 sequence (P05106 27-788): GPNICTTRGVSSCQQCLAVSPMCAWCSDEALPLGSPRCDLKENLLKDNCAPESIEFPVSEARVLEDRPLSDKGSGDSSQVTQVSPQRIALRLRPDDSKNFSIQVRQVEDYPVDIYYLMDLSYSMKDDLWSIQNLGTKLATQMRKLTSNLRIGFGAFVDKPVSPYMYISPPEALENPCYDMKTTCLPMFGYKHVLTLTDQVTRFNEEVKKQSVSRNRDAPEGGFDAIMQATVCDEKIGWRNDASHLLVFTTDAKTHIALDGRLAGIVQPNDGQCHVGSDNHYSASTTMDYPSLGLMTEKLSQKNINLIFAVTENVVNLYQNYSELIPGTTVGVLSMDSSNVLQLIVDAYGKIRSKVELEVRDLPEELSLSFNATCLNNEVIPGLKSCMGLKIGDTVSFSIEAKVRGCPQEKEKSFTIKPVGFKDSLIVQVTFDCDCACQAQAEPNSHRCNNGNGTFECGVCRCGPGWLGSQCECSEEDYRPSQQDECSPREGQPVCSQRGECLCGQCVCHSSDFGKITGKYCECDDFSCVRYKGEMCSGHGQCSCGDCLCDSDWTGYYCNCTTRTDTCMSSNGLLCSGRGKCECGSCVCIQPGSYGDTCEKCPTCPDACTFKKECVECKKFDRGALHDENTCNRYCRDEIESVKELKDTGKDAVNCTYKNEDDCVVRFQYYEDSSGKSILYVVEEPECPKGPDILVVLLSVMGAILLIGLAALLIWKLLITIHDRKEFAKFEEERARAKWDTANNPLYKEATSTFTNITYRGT
T1 sequence (P06756 31-889 limits assumed): as the sequence (P06756 31-889 limits assumed) above
T1 sequence (P06756 891-992 partner limits assumed): as the sequence (P06756 891-992 partner limits assumed) above
T1 sequence (P26012 43-684 limits assumed): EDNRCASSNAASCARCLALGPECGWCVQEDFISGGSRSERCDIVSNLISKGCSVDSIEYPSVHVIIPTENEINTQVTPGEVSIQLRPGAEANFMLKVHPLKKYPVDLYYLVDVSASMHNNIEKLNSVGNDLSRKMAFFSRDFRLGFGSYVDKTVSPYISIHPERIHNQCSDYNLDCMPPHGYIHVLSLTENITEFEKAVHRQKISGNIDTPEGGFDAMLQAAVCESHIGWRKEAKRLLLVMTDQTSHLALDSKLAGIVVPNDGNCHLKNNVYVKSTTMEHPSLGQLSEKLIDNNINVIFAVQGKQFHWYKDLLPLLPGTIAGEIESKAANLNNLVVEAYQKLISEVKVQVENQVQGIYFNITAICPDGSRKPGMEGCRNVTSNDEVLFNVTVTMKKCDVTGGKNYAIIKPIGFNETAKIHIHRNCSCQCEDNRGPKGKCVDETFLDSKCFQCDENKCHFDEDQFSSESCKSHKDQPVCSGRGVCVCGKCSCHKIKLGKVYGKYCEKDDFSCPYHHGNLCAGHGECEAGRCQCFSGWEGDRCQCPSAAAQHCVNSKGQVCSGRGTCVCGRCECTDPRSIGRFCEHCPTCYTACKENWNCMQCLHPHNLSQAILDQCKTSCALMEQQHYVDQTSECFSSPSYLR

SMILES: CC(C)(C)c1cc(Br)cc([C@H](CC(=O)O)NC(=O)CNC(=O)c2cc(O)cc(NC3=NCC(O)CN3)c2)c1 (stereo partly drawn) [Example 1, (3S)—N-[3-hydroxy-5-[(1,4,5,6-tetrahydro-5-hydroxy-2-pyrimidinyl)amino]benzoyl]glycyl-3-(3-bromo-5-tert-butylphenyl)-β-alanine]
- IC50 [1]: 0.23 nM
- IC50 [2]: 0.8 nM
- IC50 [3]: 2.5 nM
